Measured values taken from PubChem BioAssay AID1996.
Values after ≈ are worked out from the molar mass of the structure shown.

Settings: buffer; pH 7.4; 200.0 µM

Compared with COC(=O)Cn1cc(C(=O)C(F)(F)F)c2ccccc21, Cn1cc(C(=O)OCC(=O)NC2CCCC2)c2ccccc21 is 1.8-fold lower in solubility kinetic: 13.2 µg/mL (≈ 46.3 µM) for the first, 7.2 µg/mL (≈ 24 µM) for the second.

First: CCOC(=O)N1CCN(C(=O)c2cc3ccccc3o2)CC1
Second: O=C(c1ccc([N+](=O)[O-])cc1)N1CCC(Cc2ccccc2)CC1
The solubility kinetic of the first is higher: greater than 45.3 µg/mL for the first, 27.5 µg/mL (≈ 84.8 µM) for the second.

First: COc1ccccc1C(=O)CC(=O)C(=O)Nc1cccc([N+](=O)[O-])c1C
Second: CSc1nccn1C(=O)c1ccccc1[N+](=O)[O-]
The solubility kinetic of the first is lower: 15.5 µg/mL (≈ 43.5 µM) for the first, greater than 39.5 µg/mL for the second.

First: Cc1ccc(S(=O)(=O)CC(O)COc2ccccc2C#N)cc1 (stereo unspecified)
Second: NS(=O)(=O)c1ccc(CNC(=O)c2ccc3ccccc3n2)cc1
The solubility kinetic of the first is higher: greater than 49.7 µg/mL for the first, 3.9 µg/mL (≈ 11.4 µM) for the second.

CN1C2CCC1CC(NC(=O)CSc1ccc(Cl)cc1)C2 (stereo unspecified) and CC(=O)c1cc(Cl)ccc1OCC(=O)NC1CCCC1 cannot be ordered by solubility kinetic: greater than 48.7 µg/mL for the first, greater than 44.4 µg/mL for the second.

O=C(Nc1cc2c(cc1Br)OCCCO2)c1cccnc1 and S=C(c1ccc2c(c1)OCO2)N1CCOCC1 cannot be ordered by solubility kinetic: greater than 52.4 µg/mL for the first, greater than 37.7 µg/mL for the second.

Going from O=C(NCCS(=O)(=O)NC1CCCC1)c1ccccc1 to O=C(NC1CCN(C(=O)NCc2ccccc2)CC1)c1ccc(F)cc1, the solubility kinetic falls from greater than 44.5 µg/mL to 9.3 µg/mL (≈ 26.2 µM).

COc1cccc(CSc2nccn2C)c1 and COc1ccccc1-n1ccnc1SCC(=O)NC(C)(C)C cannot be ordered by solubility kinetic: greater than 35.1 µg/mL for the first, 43.9 µg/mL (≈ 137 µM) for the second.

Going from Cc1ccc(NC(=O)C2CC2)cc1S(=O)(=O)N1CCOCC1 to Cc1ccc(O)c(NC(=O)C2CCCCC2)c1, the solubility kinetic falls from greater than 48.7 µg/mL to 33.3 µg/mL (≈ 143 µM).

CC1=C(C(=O)OC2CCCCC2)C(c2ccc(O)cc2)NC(=O)N1 (stereo unspecified) and O=C(CSc1nccc(=O)[nH]1)NC1CCCCCCC1 cannot be ordered by solubility kinetic: greater than 49.6 µg/mL for the first, greater than 44.3 µg/mL for the second.

First: CC(C)NC(=O)CN1CCN(C(=O)CCl)CC1.Cl
Second: O=C(O)CC1(CC(=O)N2CCC(C(=O)O)CC2)CCCC1
The solubility kinetic of the first is higher: greater than 44.7 µg/mL for the first, 40.6 µg/mL (≈ 137 µM) for the second.

First: CC(C)(C)N(Cc1ccccc1)C(=O)COC(=O)c1ccc(N2CCCC2=O)cc1
Second: Nc1cccc(CP(=O)(c2ccccc2)c2ccccc2)c1
The solubility kinetic of the first is lower: 2.5 µg/mL (≈ 6.12 µM) for the first, greater than 46.1 µg/mL for the second.

Compared with Cc1ccc(C(C)C)c(OCCCCCN2CCOCC2)c1, Cc1cccc(OCCCC(=O)N2CCCCCC2)c1C is 2.1-fold higher in solubility kinetic: 12.8 µg/mL (≈ 41.9 µM) for the first, 26.9 µg/mL (≈ 92.9 µM) for the second.

First: CN(C)C=Nc1nonc1-c1ccc(Cl)cc1
Second: Cc1ccc(-c2nc3ncccc3n2O)cc1
The solubility kinetic of the first is lower: 1.4 µg/mL (≈ 5.58 µM) for the first, greater than 33.8 µg/mL for the second.

Going from O=C(CC1(CC(=O)N2CCOCC2)CCCC1)Nc1ccc(F)cc1 to O=C(Nc1ccc(F)cc1)Nc1ccc2ccccc2n1, the solubility kinetic falls from greater than 52.3 µg/mL to less than 0.2 µg/mL.

Going from CCCCCC(=O)Nc1c2c(nc3ccccc13)CCC2 to CCCCn1c2ccccc2c2cc(CC(N)=O)ccc21, the solubility kinetic falls from 18.7 µg/mL (≈ 66.2 µM) to 3.8 µg/mL (≈ 13.6 µM) (4.9-fold).

Going from CC(C)OC(=O)NCCOC(=O)Nc1ccccc1Cl to Cc1cc(Cl)ccc1OC(C)C(=O)OCC(=O)c1ccc[nH]1 (stereo unspecified), the solubility kinetic falls from greater than 45.1 µg/mL to 4 µg/mL (≈ 12.4 µM).

COc1ccc(CNC(=O)C2CCC(=O)N2C(C)C)c(OC)c1 (stereo unspecified) and Cc1ccc(NC(=O)NCCCN2CCCC2=O)c(C)c1 cannot be ordered by solubility kinetic: greater than 48.1 µg/mL for the first, greater than 43.4 µg/mL for the second.

Going from O=C(O)CNC1c2ccccc2CSc2ccccc21 (stereo unspecified) to ClCC1=Nc2ccccc2Cc2ccccc21, the solubility kinetic falls from greater than 42.8 µg/mL to 4.8 µg/mL (≈ 19.9 µM).

First: Nc1nc(COc2ccc(F)cc2Cl)nc(N2CCCCC2)n1
Second: Cc1cc(SCc2ccc(F)cc2)nc(=O)[nH]1
The solubility kinetic of the first is 6.5-fold lower: 3.4 µg/mL (≈ 10.1 µM) for the first, 22.1 µg/mL (≈ 88.3 µM) for the second.

Going from CC12CN(C(=O)c3cccc([N+](=O)[O-])c3)C3(C#N)CC1CCC23C (stereo unspecified) to COC(=O)c1ccc(COc2cc([N+](=O)[O-])cc3cccnc23)o1, the solubility kinetic falls from 45.3 µg/mL (≈ 139 µM) to 3.3 µg/mL (≈ 10.1 µM) (14-fold).

Compared with S=c1nc(-c2ccccc2)[nH]c2ccc(Br)cc12, O=c1[nH]c(Cc2ccccc2)nc2ccccc12 is higher in solubility kinetic: less than 0.3 µg/mL for the first, 2.5 µg/mL (≈ 10.6 µM) for the second.

First: Fc1ccc(C(CCNCc2cccs2)c2ccco2)cc1 (stereo unspecified)
Second: O=S(=O)(NCc1ccccc1)c1ccc2ccccc2c1
The solubility kinetic of the first is 31-fold higher: 34.2 µg/mL (≈ 108 µM) for the first, 1.1 µg/mL (≈ 3.7 µM) for the second.

Compared with Cc1ccc(CN(Cc2ccco2)C(=S)NCC(=O)NC2CC2)cc1, Cc1ccc(NC(=S)Nc2ccccn2)c(C)c1 is 15-fold lower in solubility kinetic: 47.2 µg/mL (≈ 132 µM) for the first, 3.1 µg/mL (≈ 12 µM) for the second.

First: O=c1ncn(-c2cccc(Cl)c2)c2ccccc12
Second: COC(=O)Cn1c2ccccc2c2nc3ccccc3nc21
The solubility kinetic of the first is 190-fold higher: 38 µg/mL (≈ 148 µM) for the first, 0.2 µg/mL (≈ 0.687 µM) for the second.

CC(C)Cc1ccc(C(C)C(=N)N)cc1.Cl (stereo unspecified) and CCOc1cc(C=O)ccc1OCC(N)=O cannot be ordered by solubility kinetic: greater than 36.1 µg/mL for the first, greater than 33.5 µg/mL for the second.

First: C=C(C)Cn1cnc2c(oc3nc4c(cc32)CCCC4)c1=O
Second: COc1ccc(C(=O)Cn2c(=O)oc3ccc(C)cc32)cc1
The solubility kinetic of the first is higher: 2.5 µg/mL (≈ 8.46 µM) for the first, less than 0.6 µg/mL for the second.

First: COc1ccc(-c2nc(-c3cccnc3)no2)cc1OC
Second: Cc1cc(C)nc(Nc2cccc(C(F)(F)F)c2)n1.Cl
The solubility kinetic of the first is 14-fold higher: 25.8 µg/mL (≈ 91.1 µM) for the first, 1.8 µg/mL for the second.

Compared with C=CCOC(=O)C1=C(C)OC(N)=C(C#N)C1c1ccco1 (stereo unspecified), Cn1c(N)c(C(=O)COC(=O)c2cccc(S(=O)(=O)N3CCOCC3)c2)c(=O)n(C)c1=O is 2.1-fold higher in solubility kinetic: 9.6 µg/mL (≈ 33.5 µM) for the first, 20 µg/mL (≈ 42.9 µM) for the second.

Going from CCCSc1ncnc2sc(C)c(C)c12 to CC(C)(C)NCC(O)COc1cccc2c1C[C@H](O)[C@H](O)C2 (stereo partly specified), the solubility kinetic rises from 0.5 µg/mL (≈ 2.1 µM) to greater than 46.4 µg/mL.

With CN1C(=O)/C(=C/C=C2\SCCN2C)N(C)C1=S the solubility kinetic was 8 µg/mL (≈ 29.7 µM).
